# Tests used:
# [1] = Liposomes loaded with cell cycle blocking agents and FLA before OVA/CpG vaccination; assay type: in vivo, mice; conditions: liposomes i.p. day 1, 100 ug OVA/10 ug CpG day 2
# Description: FIGS. 42A-42D. […] Liposomes were loaded with two agents to block cell cycle (Cytoclastin D, CytoD, which blocks cells in G1 phase and Nocodozole, Noco, which blocks cells in G2 phase) as well as flagellin(FLA) as an TLR agonist. Mice were injected with 200 uL of 10 mM total lipid liposomes containing either (1) PBS only, Blank (2) FLA, 1 ug total per injection (3) FLA and 100 ug CytoD or (4) FLA+20 ug Noco. Mice were injected i.p with liposomes on day 1, then injected with 100 ug OVA/10 ug CpG (free formulation) on day 2 also i.p. Sera was collected via cheek bleed 1 hr after OVA/CpG injection. Mice were then sac'd on day 10 to observe anti-OVA Ig. Serum levels 1 h after injection for (FIG. 42A) IL-4, (FIG. 42B) MCP-1 and (FIG. 42C) TNF-a. (FIG. 42D) Total anti-OVA Ig on […]. N=5 mice per group.
# (§1) Additional characterization and targeting of first responder dendritic cells (FRs) was performed.
# [2] = tested on: BMDCs; experiment: Nocodazole treated BMDCs, MP uptake and % FRs by imagestream; assay type: cell-based, mouse; conditions: 10 nM Nocodazole for 20 hrs prior to MP treatment, versus NT
# Description: FIGS. 39A-39E. FRs are more likely actively dividing. (FIG. 39A) 1 million BMDCs were incubated with 1 million MP-TLR4 for 15 mins, washed and stain with Hoest for nuclear stain (0.1 ug/mL) and anti-CD11c antibody. […] (FIG. 39B) Graph of imagestream data from FIG. 39A from an N=3 showing that most BMDC FRs are in G2 phase. (FIG. 39C) 1 million BMDCs were similarly treated as in FIG. 39A, except some samples were treated with 10 nM Nocodazole for 20 hrs prior to MP-TLR4 treatment. NT=non-treated, Noco=Nocodazole treated. (FIG. 39D) Similar to FIG. 39C, BMDCs were treated with MP-TLR7 or Blank MPs (1:1 particles/cells) for 15 mins, then tested via imagestream. Total MP uptake per 100 k BMDCs were calculated for either NT or Noco treated samples. […] N=3, Error bars indicate +/−SD.
# [3] = molecular target: DAP12 (Homo sapiens, UniProt O43914); conditions: cited from earlier work
# DAP12, sequence (O43914 22-113, species assumed): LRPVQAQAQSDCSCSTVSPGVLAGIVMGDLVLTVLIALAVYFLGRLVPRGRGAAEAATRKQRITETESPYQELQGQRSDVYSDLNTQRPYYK
# [4] = tested on: FRs; experiment: CD206 targeting peptide liposomes, FR targeting in BMDCs and splenocytes; assay type: cell-based, mouse; conditions: lipid-peptide in 200 nm liposomes at 1% total lipid, in combination with heparin or GFLSKSLVF
# Description: FIGS. 48A-48B. FR targeting peptides. A peptide targeting CD206 as described in a study by Ghebremedhin et al (Ghebremedhin A, Salam AB, Adu-Addai B, et al. Preprint. bioRxiv. 2020;2020.07.27.218115; incorporated herein by reference), having sequence RWKFGGFKWR (SEQ ID NO:2), was synthesized using the same lipid-peptide display technique as shown previously and incorporated into 200 nm liposomes at 1% total lipid. (FIG. 48A) 200K BMDCs were incubated with liposomes at either 1 or 10 uM total lipid concentration for 15 mins, then incubated with MP-TLR4 (200K) for 15 mins, washed and stained. The liposomal RFU is plotted for various formulations. MMR=CD206 targeting lipid at 1% total lipid, DAP12=DAP12 targeting lipid at 1% total lipid, Hep=heparin-lipid conjugate at 10% total lipid. (FIG. 48B) similar to part A, but using 2 million splenocytes and gating on all CD11c+ cells.
# as §1
# [5] = molecular target: T1, PRG2 (Homo sapiens, UniProt P13727); conditions: cited from earlier work
# T1 sequence (P13727 106-222): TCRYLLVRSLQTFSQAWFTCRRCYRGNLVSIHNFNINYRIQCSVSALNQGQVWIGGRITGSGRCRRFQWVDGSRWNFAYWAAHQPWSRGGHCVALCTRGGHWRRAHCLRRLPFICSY
compound,measurement,setting,value
C=C1[C@@H](C)[C@H]2[C@H](Cc3ccccc3)NC(=O)[C@]23[C@H](OC(C)=O)/C=C/[C@@](C)(O)C(=O)[C@@H](C)C/C=C/[C@H]3[C@@H]1O [Cytoclastin D],vaccine response,[1],increases vaccine response
"COC(=O)Nc1nc2cc(C(=O)c3cccs3)ccc2[nH]1 [Noco, Nocodazole]",total % of FRs,[2],increases in FR population
GFLSKSLVF,binding to DAP12,[3],selectively binding
RWKFGGFKWR [peptide targeting CD206 as described by Ghebremedhin et al],identification and targeting of FRs,[4],can identify and target FRs
heparin,affinity to PRG2,[5],moderate affinity
